# Assay results from patent publication US10168342B2, “Lipid probes and uses thereof” (THE SCRIPPS RESEARCH INSTITUTE, priority 2015, dated 2019).
# Where two headings read alike, the source gives them in different places.
# Tests used:
# [1] = biological target: AEA-DA lipid probe targets in Neuro2a cells (Mus musculus, UniProt Q62351)
# [2] = biological target: AEA-DA lipid probe targets in Neuro2a cells (Mus musculus, UniProt P20152)
# [3] = biological target: T1, AEA-DA lipid probe targets in Neuro2a cells (Mus musculus, UniProt P61759)
# T1 sequence (P61759 1-196): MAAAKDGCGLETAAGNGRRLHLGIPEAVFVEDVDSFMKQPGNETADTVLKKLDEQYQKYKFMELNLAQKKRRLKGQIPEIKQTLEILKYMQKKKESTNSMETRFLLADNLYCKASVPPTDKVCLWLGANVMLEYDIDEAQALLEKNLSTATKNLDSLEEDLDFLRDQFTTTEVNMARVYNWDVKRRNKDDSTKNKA
# [4] = biological target: AEA-DA lipid probe targets in Neuro2a cells (Mus musculus, UniProt Q9ET22)
# [5] = biological target: T2, AEA-DA lipid probe targets in Neuro2a cells (Mus musculus, UniProt Q9WTQ8)
# T2 sequence (Q9WTQ8 1-209): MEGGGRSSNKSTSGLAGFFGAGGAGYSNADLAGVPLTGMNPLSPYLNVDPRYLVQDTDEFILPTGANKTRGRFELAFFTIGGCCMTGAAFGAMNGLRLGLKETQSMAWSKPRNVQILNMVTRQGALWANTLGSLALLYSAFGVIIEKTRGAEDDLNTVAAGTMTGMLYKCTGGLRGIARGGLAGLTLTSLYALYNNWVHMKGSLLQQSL
# [6] = biological target: AEA-DA lipid probe targets in Neuro2a cells (Mus musculus, UniProt Q8VDQ1)
# [7] = biological target: T3, AEA-DA lipid probe targets in Neuro2a cells (Mus musculus, UniProt Q61595)
# T3 sequence (Q61595 1-1327): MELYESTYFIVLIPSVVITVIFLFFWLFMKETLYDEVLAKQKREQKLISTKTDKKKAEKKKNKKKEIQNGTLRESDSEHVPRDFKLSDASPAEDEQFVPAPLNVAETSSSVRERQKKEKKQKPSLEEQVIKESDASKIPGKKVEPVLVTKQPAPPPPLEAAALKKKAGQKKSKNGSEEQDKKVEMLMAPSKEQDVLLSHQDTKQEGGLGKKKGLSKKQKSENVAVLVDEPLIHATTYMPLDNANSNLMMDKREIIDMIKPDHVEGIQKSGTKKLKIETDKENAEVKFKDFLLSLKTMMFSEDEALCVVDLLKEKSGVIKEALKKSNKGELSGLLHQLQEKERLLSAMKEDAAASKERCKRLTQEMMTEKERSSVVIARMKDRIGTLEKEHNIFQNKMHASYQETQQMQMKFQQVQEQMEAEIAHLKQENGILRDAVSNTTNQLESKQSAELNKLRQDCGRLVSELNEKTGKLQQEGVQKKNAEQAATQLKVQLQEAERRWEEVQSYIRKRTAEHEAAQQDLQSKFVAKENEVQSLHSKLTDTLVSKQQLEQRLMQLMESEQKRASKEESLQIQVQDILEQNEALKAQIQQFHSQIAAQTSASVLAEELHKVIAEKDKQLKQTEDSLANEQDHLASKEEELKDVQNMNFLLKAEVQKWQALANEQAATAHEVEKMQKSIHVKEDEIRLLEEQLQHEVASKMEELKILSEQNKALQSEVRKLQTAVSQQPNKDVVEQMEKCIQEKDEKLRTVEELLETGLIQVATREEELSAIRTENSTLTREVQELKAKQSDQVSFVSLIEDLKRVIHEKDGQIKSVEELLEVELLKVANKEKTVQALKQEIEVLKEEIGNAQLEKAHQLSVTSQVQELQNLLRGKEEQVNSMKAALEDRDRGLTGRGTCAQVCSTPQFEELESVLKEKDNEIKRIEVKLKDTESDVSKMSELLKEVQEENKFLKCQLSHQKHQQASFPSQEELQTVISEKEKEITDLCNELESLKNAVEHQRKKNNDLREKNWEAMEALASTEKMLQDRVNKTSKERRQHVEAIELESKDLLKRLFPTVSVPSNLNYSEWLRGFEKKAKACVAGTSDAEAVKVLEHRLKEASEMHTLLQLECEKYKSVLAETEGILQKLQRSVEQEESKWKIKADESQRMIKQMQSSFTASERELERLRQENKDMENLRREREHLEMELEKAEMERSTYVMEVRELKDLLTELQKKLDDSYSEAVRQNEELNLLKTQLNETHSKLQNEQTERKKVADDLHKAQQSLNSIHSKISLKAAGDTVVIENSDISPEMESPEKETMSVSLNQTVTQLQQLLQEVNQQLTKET
# [8] = biological target: AEA-DA lipid probe targets in Neuro2a cells (Mus musculus, UniProt Q60716)
# AEA-DA lipid probe targets in Neuro2a cells (Mus musculus, UniProt Q60716), sequence (Q60716 24-537): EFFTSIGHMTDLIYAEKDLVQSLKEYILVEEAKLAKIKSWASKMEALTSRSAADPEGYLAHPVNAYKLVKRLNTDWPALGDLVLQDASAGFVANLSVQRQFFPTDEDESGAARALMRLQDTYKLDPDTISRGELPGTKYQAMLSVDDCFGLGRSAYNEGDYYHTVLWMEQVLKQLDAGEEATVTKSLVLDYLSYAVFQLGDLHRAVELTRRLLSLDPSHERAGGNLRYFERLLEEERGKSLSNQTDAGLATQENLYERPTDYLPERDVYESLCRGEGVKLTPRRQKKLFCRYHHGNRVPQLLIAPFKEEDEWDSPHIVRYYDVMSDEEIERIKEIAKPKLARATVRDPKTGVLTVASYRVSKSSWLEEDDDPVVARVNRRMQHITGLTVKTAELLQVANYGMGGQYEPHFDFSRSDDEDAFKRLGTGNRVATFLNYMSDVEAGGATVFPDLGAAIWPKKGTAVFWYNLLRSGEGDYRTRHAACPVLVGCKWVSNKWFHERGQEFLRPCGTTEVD
# AEA-DA lipid probe targets in Neuro2a cells (Mus musculus, UniProt P20152), sequence (P20152 whole entry): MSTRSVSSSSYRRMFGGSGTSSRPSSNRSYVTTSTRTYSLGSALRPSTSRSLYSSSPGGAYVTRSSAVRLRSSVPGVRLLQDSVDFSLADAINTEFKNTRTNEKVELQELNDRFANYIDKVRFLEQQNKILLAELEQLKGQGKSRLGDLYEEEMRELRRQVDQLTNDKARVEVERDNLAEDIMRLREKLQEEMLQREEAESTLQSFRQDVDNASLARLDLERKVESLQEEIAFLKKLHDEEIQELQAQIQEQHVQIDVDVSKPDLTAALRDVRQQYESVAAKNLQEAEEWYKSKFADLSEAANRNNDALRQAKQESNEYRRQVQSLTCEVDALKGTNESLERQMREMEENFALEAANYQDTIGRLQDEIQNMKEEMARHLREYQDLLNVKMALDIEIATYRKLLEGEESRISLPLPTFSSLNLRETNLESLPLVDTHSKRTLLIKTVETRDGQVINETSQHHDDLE
# AEA-DA lipid probe targets in Neuro2a cells (Mus musculus, UniProt Q62351), sequence (Q62351 whole entry): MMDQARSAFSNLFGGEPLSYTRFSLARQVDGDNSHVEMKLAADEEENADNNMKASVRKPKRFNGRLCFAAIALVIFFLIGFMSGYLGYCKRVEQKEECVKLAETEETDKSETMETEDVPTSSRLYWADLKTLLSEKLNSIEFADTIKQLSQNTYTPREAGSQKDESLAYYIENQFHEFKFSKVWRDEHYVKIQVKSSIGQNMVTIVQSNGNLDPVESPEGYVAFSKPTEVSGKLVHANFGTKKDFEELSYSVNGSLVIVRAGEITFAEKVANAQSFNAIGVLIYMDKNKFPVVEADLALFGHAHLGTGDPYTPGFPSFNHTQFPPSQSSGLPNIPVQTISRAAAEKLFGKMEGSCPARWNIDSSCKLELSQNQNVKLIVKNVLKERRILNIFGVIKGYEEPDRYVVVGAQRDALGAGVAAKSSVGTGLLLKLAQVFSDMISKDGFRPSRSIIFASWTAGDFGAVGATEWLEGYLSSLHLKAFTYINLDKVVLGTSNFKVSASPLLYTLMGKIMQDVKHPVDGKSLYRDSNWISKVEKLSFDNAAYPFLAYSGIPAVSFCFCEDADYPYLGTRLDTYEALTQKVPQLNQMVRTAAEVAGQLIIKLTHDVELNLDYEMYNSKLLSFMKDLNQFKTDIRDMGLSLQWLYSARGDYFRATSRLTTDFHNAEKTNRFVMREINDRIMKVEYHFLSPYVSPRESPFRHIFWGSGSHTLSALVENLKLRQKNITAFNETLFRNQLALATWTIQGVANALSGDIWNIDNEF
# AEA-DA lipid probe targets in Neuro2a cells (Mus musculus, UniProt Q8VDQ1), sequence (Q8VDQ1 whole entry): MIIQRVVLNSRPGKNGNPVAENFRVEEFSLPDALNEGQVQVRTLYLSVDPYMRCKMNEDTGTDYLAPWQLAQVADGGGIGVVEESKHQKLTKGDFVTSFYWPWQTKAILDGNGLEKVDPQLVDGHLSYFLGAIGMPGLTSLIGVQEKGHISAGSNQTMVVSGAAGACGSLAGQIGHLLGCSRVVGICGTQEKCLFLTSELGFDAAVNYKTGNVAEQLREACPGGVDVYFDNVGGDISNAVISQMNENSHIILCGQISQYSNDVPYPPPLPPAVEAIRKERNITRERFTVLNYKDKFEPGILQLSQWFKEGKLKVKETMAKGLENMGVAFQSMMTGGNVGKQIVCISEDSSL
# AEA-DA lipid probe targets in Neuro2a cells (Mus musculus, UniProt Q9ET22), sequence (Q9ET22 37-506): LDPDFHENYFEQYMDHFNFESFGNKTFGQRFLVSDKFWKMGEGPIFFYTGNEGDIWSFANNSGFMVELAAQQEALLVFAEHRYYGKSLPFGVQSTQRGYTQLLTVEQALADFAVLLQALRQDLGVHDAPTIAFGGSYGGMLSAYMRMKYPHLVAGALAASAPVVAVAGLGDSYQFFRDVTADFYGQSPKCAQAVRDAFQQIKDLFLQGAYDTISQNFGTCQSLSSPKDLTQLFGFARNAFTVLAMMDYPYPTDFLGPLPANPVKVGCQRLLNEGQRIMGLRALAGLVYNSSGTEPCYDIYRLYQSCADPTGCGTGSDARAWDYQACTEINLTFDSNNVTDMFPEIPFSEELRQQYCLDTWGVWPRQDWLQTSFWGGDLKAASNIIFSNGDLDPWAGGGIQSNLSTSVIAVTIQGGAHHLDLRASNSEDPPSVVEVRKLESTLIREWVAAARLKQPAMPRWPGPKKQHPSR
compound,measurement,setting,value
"CCCCC/C=C\C/C=C\C/C=C\C/C=C\CCCC(=O)NCCO [AEA, anandamide, reference compound]",SILAC ratio Tfrc,[1]; competitor 200 μM,1.0
same,SILAC ratio Vim,[2]; competitor 200 μM,0.9
same,"SILAC ratio, Vbp1",[3]; competitor 200 μM,1.1
same,SILAC ratio Dpp7,[4]; competitor 200 μM,1.4
same,"SILAC ratio, Timm23",[5]; competitor 200 μM,1.8
same,"SILAC ratio, Ptgr2",[6]; competitor 200 μM,8.7
same,"SILAC ratio, Ktn1",[7]; competitor 200 μM,1.4
same,SILAC ratio P4ha2,[8]; competitor 200 μM,1.0
"O=C(/C=C/c1cccnc1)NCCCCC1CCN(C(=O)c2ccccc2)CC1 [FK-866, reference compound]",SILAC ratio Tfrc,[1]; competitor 25 μM,1.1
same,SILAC ratio Vim,[2]; competitor 25 μM,1.2
same,"SILAC ratio, Vbp1",[3]; competitor 25 μM,1.1
same,SILAC ratio Dpp7,[4]; competitor 25 μM,1.0
same,"SILAC ratio, Timm23",[5]; competitor 25 μM,1.1
same,"SILAC ratio, Ptgr2",[6]; competitor 25 μM,5.2
same,"SILAC ratio, Ktn1",[7]; competitor 25 μM,1.2
same,SILAC ratio P4ha2,[8]; competitor 25 μM,1.1
"CN1CCN(C(=O)c2c(-c3ccccc3)c3cc([N+](=O)[O-])ccc3n2C)CC1 [KML110, (1-Methyl-5-nitro-3-phenyl-1H-indol-2-yl)(4-methylpiperazin-1-yl)methanone]",SILAC ratio Tfrc,[1]; competitor 25 μM,1.1
same,SILAC ratio Vim,[2]; competitor 25 μM,1.2
same,"SILAC ratio, Vbp1",[3]; competitor 25 μM,1.6
same,SILAC ratio Dpp7,[4]; competitor 25 μM,1.5
same,"SILAC ratio, Timm23",[5]; competitor 25 μM,1.3
same,"SILAC ratio, Ptgr2",[6]; competitor 25 μM,1.5
same,SILAC ratio P4ha2,[8]; competitor 25 μM,1.3
"CN1CCN(C(=O)c2[nH]c3ccc([N+](=O)[O-])cc3c2-c2ccccc2)CC1 [MJN228, (4-Methylpiperazin-1-yl)(5-nitro-3-phenyl-1H-indol-2-yl)methanone]",SILAC ratio Tfrc,[1]; competitor 10 μM,1.1
same,SILAC ratio Tfrc,[1]; competitor 25 μM,1.0
same,SILAC ratio Tfrc,[1]; competitor 50 μM,1.0
same,SILAC ratio Tfrc,[1]; competitor 100 μM,1.0
same,SILAC ratio Vim,[2]; competitor 10 μM,1.2
same,SILAC ratio Vim,[2]; competitor 25 μM,1.2
same,SILAC ratio Vim,[2]; competitor 50 μM,0.9
same,SILAC ratio Vim,[2]; competitor 100 μM,1.0
same,"SILAC ratio, Vbp1",[3]; competitor 25 μM,1.5
same,"SILAC ratio, Vbp1",[3]; competitor 50 μM,0.9
same,"SILAC ratio, Vbp1",[3]; competitor 100 μM,2.0
same,SILAC ratio Dpp7,[4]; competitor 10 μM,1.0
same,SILAC ratio Dpp7,[4]; competitor 25 μM,0.7
same,SILAC ratio Dpp7,[4]; competitor 50 μM,1.0
same,SILAC ratio Dpp7,[4]; competitor 100 μM,0.7
same,"SILAC ratio, Timm23",[5]; competitor 10 μM,1.0
same,"SILAC ratio, Timm23",[5]; competitor 25 μM,1.2
same,"SILAC ratio, Timm23",[5]; competitor 50 μM,1.3
same,"SILAC ratio, Timm23",[5]; competitor 100 μM,1.5
same,"SILAC ratio, Ptgr2",[6]; competitor 10 μM,1.2
same,"SILAC ratio, Ptgr2",[6]; competitor 25 μM,1.2
same,"SILAC ratio, Ptgr2",[6]; competitor 50 μM,1.0
same,"SILAC ratio, Ptgr2",[6]; competitor 100 μM,1.5
same,"SILAC ratio, Ktn1",[7]; competitor 10 μM,1.0
same,"SILAC ratio, Ktn1",[7]; competitor 25 μM,1.4
same,"SILAC ratio, Ktn1",[7]; competitor 100 μM,1.2
same,SILAC ratio P4ha2,[8]; competitor 10 μM,1.2
same,SILAC ratio P4ha2,[8]; competitor 25 μM,1.3
same,SILAC ratio P4ha2,[8]; competitor 50 μM,1.0
same,SILAC ratio P4ha2,[8]; competitor 100 μM,1.0
"C=CCN(C)CCCCCCOc1ccc(C(=O)c2ccc(Br)cc2)c(F)c1 [Ro 48-8071, reference compound]",SILAC ratio Tfrc,[1]; competitor 25 μM,0.8
same,SILAC ratio Vim,[2]; competitor 25 μM,0.8
same,"SILAC ratio, Vbp1",[3]; competitor 25 μM,0.9
same,SILAC ratio Dpp7,[4]; competitor 25 μM,0.3
same,"SILAC ratio, Timm23",[5]; competitor 25 μM,1.0
same,"SILAC ratio, Ptgr2",[6]; competitor 25 μM,1.1
same,"SILAC ratio, Ktn1",[7]; competitor 25 μM,0.8
same,SILAC ratio P4ha2,[8]; competitor 25 μM,1.0
